In article PMC3639963, “A New Class of Small Molecule Inhibitor of BMP Signaling” (PLoS ONE, 2013):

Key:
Assay in all cases: Nanosyn kinase profiling
Format in all cases: biochemical
Details in all cases: read-out: Percentage inhibition; for inhibition at 0.1 µM: 0.1 µM inhibitor; for inhibition at 1 µM: 1 µM inhibitor
DAPK1 = target: T1, DAPK1 (Homo sapiens, UniProt P53355)
T1 construct: purchased Nanosyn (enzymatic panel); SGC in-house recombinant human kinases (DSF panel); Invitrogen (ALK1-6)
Outline: (§1)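 Percent inhibition of each kinase was measured with the inhibitor at 0.1 µM and at 1 µM, as part of a 200-kinase human selectivity panel.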

FLT1 = target: T2, FLT1 (Homo sapiens, UniProt P17948)
T2 construct: purchased Nanosyn (enzymatic panel); SGC in-house recombinant human kinases (DSF panel); Invitrogen (ALK1-6)
Outline: as §1

KIT = target: T3, KIT (Homo sapiens, UniProt P10721)
T3 construct: purchased Nanosyn (enzymatic panel); SGC in-house recombinant human kinases (DSF panel); Invitrogen (ALK1-6)
T3 sequence (P10721 26-976): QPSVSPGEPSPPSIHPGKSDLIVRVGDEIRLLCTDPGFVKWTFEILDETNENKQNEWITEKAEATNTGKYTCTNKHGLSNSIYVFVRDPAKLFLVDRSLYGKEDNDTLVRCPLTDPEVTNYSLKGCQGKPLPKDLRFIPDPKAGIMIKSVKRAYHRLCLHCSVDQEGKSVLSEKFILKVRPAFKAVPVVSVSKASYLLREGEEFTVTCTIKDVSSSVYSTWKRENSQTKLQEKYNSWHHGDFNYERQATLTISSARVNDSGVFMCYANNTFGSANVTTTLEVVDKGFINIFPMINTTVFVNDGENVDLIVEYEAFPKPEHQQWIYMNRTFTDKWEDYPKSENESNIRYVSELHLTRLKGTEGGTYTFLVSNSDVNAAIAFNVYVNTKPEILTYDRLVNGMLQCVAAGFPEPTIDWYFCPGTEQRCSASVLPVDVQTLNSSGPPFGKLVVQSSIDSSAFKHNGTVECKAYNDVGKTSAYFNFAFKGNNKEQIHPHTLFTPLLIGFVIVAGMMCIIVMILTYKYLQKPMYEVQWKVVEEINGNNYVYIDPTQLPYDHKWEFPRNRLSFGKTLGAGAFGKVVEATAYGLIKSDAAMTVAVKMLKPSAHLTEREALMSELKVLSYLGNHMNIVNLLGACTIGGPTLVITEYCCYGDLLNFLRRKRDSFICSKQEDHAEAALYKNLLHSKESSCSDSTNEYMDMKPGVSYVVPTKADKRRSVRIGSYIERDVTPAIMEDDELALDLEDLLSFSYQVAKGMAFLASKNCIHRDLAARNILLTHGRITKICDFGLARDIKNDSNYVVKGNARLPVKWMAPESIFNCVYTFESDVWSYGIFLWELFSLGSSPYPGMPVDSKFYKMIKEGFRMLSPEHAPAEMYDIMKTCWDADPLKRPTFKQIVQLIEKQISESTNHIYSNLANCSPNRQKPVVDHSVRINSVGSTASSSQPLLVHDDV
Outline: as §1

LRRK2 = target: T4, LRRK2 (Homo sapiens, UniProt Q5S007)
T4 construct: purchased Nanosyn (enzymatic panel); SGC in-house recombinant human kinases (DSF panel); Invitrogen (ALK1-6)
Outline: as §1

MER = target: T5, MER (Homo sapiens, UniProt Q12866)
T5 construct: purchased Nanosyn (enzymatic panel); SGC in-house recombinant human kinases (DSF panel); Invitrogen (ALK1-6)
T5 sequence (Q12866 21-999): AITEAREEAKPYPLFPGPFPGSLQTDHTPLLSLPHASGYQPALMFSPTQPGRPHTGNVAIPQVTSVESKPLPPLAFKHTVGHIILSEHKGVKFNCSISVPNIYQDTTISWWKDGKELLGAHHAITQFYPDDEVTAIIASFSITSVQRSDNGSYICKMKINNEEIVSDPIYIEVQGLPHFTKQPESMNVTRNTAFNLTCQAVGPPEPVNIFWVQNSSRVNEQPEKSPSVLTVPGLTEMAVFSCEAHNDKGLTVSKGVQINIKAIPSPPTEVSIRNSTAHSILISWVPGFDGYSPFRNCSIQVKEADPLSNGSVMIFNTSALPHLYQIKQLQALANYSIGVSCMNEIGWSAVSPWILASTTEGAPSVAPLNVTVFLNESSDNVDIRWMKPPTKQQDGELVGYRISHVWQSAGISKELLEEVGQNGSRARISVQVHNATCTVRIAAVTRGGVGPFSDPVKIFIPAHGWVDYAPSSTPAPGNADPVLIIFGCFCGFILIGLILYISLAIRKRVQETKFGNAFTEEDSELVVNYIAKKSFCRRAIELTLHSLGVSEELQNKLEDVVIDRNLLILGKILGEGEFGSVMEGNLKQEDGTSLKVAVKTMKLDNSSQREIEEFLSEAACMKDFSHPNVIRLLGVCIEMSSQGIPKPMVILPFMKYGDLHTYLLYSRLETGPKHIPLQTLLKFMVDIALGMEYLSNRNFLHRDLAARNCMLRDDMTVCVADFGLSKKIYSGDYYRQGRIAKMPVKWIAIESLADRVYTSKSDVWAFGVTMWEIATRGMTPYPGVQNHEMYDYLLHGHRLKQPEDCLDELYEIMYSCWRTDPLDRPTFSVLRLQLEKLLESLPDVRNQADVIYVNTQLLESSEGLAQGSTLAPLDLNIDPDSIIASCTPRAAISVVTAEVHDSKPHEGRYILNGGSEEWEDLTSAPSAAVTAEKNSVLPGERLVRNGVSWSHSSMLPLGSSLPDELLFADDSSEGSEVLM
Outline: as §1

NEK2 = target: T6, NEK2 (Homo sapiens, UniProt P51955)
T6 construct: purchased Nanosyn (enzymatic panel); SGC in-house recombinant human kinases (DSF panel); Invitrogen (ALK1-6)
T6 sequence (P51955 1-445): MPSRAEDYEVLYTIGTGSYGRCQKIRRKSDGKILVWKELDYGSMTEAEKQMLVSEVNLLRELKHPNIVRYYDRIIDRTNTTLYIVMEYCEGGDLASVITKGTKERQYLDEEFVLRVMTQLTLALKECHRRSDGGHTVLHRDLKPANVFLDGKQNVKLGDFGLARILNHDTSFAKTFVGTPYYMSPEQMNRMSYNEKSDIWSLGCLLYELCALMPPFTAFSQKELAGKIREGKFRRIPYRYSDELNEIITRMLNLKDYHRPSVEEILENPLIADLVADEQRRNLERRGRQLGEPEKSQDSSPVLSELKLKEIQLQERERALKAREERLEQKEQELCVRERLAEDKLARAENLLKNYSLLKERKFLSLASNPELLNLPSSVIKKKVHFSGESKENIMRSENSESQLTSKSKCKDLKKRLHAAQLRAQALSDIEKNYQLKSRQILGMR
Outline: as §1

NEK6 = target: T7, NEK6 (Homo sapiens, UniProt Q9HC98)
T7 construct: purchased Nanosyn (enzymatic panel); SGC in-house recombinant human kinases (DSF panel); Invitrogen (ALK1-6)
Outline: as §1

PAK2 = target: T8, PAK2 (Homo sapiens, UniProt Q13177)
T8 construct: purchased Nanosyn (enzymatic panel); SGC in-house recombinant human kinases (DSF panel); Invitrogen (ALK1-6)
T8 sequence (Q13177 whole entry): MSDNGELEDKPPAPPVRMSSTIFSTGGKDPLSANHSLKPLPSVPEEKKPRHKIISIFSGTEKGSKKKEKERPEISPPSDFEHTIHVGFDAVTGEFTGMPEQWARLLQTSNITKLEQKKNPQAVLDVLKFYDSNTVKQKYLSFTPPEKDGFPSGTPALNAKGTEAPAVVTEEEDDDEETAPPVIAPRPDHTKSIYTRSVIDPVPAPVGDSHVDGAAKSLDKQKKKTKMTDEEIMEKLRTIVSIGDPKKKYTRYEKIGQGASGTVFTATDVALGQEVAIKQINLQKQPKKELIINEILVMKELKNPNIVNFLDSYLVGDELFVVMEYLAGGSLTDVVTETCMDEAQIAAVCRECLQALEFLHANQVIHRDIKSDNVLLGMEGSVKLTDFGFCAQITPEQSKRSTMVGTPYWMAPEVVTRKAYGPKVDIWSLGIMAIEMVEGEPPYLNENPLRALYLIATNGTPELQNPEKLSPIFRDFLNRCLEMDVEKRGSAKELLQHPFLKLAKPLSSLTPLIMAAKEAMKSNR
Outline: as §1

PIM2 = target: T9, PIM2 (Homo sapiens, UniProt Q9P1W9)
T9 construct: purchased Nanosyn (enzymatic panel); SGC in-house recombinant human kinases (DSF panel); Invitrogen (ALK1-6)
T9 sequence (Q9P1W9 whole entry): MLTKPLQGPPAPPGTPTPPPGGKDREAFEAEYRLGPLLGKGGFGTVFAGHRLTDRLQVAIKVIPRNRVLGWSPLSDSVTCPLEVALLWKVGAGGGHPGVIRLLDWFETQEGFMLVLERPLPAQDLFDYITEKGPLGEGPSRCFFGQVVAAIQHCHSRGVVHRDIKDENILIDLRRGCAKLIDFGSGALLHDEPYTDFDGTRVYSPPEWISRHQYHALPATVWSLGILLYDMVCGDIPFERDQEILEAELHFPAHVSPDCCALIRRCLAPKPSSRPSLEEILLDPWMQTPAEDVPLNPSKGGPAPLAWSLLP
Outline: as §1

PKCγ = target: T10, PKCγ (Homo sapiens, UniProt P05129)
T10 construct: purchased Nanosyn (enzymatic panel); SGC in-house recombinant human kinases (DSF panel); Invitrogen (ALK1-6)
Outline: as §1

ROS = target: T11, ROS (Homo sapiens, UniProt P08922)
T11 construct: purchased Nanosyn (enzymatic panel); SGC in-house recombinant human kinases (DSF panel); Invitrogen (ALK1-6)
T11 sequence (P08922 28-2347): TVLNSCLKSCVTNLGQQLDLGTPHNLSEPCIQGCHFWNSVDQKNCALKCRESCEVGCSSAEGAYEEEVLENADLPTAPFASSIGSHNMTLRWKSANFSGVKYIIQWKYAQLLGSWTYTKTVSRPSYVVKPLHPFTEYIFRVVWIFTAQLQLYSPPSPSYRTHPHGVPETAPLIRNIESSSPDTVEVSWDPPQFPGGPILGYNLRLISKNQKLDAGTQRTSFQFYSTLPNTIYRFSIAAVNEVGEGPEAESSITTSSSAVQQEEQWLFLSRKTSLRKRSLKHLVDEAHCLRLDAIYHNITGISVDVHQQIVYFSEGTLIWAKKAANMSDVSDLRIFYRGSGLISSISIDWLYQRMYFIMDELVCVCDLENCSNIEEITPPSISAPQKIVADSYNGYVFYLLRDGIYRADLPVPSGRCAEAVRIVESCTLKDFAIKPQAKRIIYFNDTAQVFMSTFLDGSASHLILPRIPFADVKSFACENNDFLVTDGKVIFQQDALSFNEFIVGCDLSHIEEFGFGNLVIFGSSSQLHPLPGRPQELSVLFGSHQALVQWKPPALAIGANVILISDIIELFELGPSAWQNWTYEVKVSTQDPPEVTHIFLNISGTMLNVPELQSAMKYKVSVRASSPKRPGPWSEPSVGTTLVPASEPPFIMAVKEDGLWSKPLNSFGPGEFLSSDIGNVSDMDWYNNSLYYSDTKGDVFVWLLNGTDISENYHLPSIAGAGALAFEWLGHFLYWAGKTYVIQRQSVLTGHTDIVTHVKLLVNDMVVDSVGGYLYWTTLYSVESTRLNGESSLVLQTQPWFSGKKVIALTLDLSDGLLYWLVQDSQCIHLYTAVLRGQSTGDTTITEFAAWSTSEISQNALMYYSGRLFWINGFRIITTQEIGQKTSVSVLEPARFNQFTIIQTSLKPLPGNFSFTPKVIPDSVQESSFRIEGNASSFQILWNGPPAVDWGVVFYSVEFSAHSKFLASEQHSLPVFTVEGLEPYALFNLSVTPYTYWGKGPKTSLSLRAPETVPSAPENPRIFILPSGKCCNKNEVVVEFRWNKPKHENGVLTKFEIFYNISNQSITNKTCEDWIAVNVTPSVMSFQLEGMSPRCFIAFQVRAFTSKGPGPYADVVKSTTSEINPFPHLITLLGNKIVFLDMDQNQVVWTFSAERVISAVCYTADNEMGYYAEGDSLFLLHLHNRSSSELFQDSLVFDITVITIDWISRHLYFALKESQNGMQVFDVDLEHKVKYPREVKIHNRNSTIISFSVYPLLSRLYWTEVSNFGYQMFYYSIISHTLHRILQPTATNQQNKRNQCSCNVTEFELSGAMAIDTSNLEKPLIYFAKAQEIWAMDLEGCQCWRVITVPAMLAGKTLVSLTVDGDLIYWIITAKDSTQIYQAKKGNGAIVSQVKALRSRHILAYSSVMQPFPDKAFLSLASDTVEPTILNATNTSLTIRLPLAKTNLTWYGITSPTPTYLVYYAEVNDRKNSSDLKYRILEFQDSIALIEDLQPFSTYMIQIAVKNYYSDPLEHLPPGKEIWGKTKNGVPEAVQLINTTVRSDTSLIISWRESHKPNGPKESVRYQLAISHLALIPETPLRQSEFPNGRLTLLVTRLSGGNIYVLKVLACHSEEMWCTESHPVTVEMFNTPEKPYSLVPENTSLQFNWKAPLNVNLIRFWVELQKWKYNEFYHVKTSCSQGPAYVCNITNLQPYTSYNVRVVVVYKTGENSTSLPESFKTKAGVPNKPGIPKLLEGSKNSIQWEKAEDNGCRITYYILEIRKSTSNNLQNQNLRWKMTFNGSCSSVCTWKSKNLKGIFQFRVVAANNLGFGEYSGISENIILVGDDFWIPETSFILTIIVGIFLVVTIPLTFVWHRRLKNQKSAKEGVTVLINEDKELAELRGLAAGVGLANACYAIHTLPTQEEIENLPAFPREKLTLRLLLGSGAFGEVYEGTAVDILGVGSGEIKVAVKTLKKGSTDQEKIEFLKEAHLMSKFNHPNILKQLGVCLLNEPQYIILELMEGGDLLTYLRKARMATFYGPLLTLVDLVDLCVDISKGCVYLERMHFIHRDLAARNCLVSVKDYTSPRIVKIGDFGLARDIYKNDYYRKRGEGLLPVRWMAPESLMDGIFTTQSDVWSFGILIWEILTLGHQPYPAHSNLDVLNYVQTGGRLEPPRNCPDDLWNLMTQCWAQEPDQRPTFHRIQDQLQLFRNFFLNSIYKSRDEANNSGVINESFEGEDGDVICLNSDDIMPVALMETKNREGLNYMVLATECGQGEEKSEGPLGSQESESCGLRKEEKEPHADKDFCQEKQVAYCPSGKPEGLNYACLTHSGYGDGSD
Outline: as §1

SRMS = target: T12, SRMS (Homo sapiens, UniProt Q9H3Y6)
T12 construct: purchased Nanosyn (enzymatic panel); SGC in-house recombinant human kinases (DSF panel); Invitrogen (ALK1-6)
Outline: as §1

TXK = target: T13, TXK (Homo sapiens, UniProt P42681)
T13 construct: purchased Nanosyn (enzymatic panel); SGC in-house recombinant human kinases (DSF panel); Invitrogen (ALK1-6)
T13 sequence (P42681 1-527): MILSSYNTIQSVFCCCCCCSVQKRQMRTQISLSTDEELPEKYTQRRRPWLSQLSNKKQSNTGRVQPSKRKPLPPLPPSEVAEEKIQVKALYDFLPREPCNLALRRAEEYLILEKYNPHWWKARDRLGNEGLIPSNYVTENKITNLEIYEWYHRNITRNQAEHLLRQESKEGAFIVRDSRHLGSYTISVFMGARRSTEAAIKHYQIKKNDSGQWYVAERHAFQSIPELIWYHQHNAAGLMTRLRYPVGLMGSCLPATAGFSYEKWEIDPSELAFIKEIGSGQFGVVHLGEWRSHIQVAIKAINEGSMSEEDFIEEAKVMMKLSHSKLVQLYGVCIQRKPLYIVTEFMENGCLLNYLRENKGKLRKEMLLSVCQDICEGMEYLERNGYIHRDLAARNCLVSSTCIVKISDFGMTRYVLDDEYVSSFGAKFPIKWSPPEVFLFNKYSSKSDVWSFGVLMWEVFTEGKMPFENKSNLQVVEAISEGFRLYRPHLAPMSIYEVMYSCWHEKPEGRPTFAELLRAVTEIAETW
Outline: as §1

## COc1cc(-c2cc(-c3cccc(O)c3)cnc2N)cc(OC)c1OC [K02288, 3-[6-amino-5-(3,4,5-trimethoxy-phenyl)-pyridin-3-yl]-phenol]
DAPK1
  inhibition at 0.1 µM: -1%
  inhibition at 1 µM: -1%
FLT1
  inhibition at 0.1 µM: 0%
  inhibition at 1 µM: -2%
KIT
  inhibition at 0.1 µM: 4%
  inhibition at 1 µM: 9.2%
LRRK2
  inhibition at 0.1 µM: 7.1%
  inhibition at 1 µM: 27%
MER
  inhibition at 0.1 µM: 5.1%
  inhibition at 1 µM: 40%
NEK2
  inhibition at 0.1 µM: -2%
  inhibition at 1 µM: -2%
NEK6
  inhibition at 0.1 µM: -2%
  inhibition at 1 µM: -1%
PAK2
  inhibition at 0.1 µM: -1%
  inhibition at 1 µM: -1%
PIM2
  inhibition at 0.1 µM: 0.9%
  inhibition at 1 µM: 2.3%
PKCγ
  inhibition at 0.1 µM: -4%
  inhibition at 1 µM: -1%
ROS
  inhibition at 0.1 µM: 1.8%
  inhibition at 1 µM: 6.8%
SRMS
  inhibition at 0.1 µM: 0.8%
  inhibition at 1 µM: 17%
TXK
  inhibition at 0.1 µM: 2.8%
  inhibition at 1 µM: 36%

## c1ccc2c(-c3cnn4cc(-c5ccc(N6CCNCC6)cc5)cnc34)ccnc2c1 [LDN-193189]
DAPK1
  inhibition at 0.1 µM: 1.5%
  inhibition at 1 µM: 0.4%
FLT1
  inhibition at 0.1 µM: 0%
  inhibition at 1 µM: 17%
KIT
  inhibition at 0.1 µM: 7%
  inhibition at 1 µM: 41%
LRRK2
  inhibition at 0.1 µM: 8.7%
  inhibition at 1 µM: 27%
MER
  inhibition at 0.1 µM: 4.4%
  inhibition at 1 µM: 10%
NEK2
  inhibition at 0.1 µM: 2.8%
  inhibition at 1 µM: 1.2%
NEK6
  inhibition at 0.1 µM: 2.3%
  inhibition at 1 µM: -1%
PAK2
  inhibition at 0.1 µM: 0%
  inhibition at 1 µM: 0%
PIM2
  inhibition at 0.1 µM: 0%
  inhibition at 1 µM: 0%
PKCγ
  inhibition at 0.1 µM: 2.1%
  inhibition at 1 µM: 4.1%
ROS
  inhibition at 0.1 µM: 3.8%
  inhibition at 1 µM: 3.7%
SRMS
  inhibition at 0.1 µM: -1%
  inhibition at 1 µM: 8.9%
TXK
  inhibition at 0.1 µM: 4.1%
  inhibition at 1 µM: 16%
